According to ChEMBL document CHEMBL1201862, “PubChem BioAssay data set” (2004):
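Exposure lasted 48 hours, with cells grown in 96-well plates and compounds tested at five concentrations. GI50: concentration for 50% inhibition of growth.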 Activity calls are given as the source filed them. Rule as the data show it: active = GI50 up to about 1.1 µM and inactive = higher.

Key:
Assay in all cases: inhibition of tumour cell growth, NCI panel, 48 h
[1] = system: SK-MEL-28
[2] = system: A498
[3] = system: SW-620
[4] = system: HL-60
[5] = system: Malme-3M
[6] = system: T47D
[7] = system: ACHN
[8] = system: MDA-MB-435
[9] = system: SF-295
[10] = system: U-251
[11] = system: COLO 205
[12] = system: NCI-H226
[13] = system: RPMI-8226
[14] = system: CCRF-CEM
[15] = system: NCI-H460
[16] = system: IGROV-1
[17] = system: PC-3
[18] = system: HCT-15
[19] = system: SF-268
[20] = system: SN12C

Structure (SMILES) | GI50 [1] | GI50 [2] | GI50 [3] | GI50 [4] | GI50 [5] | GI50 [6] | GI50 [7] | GI50 [8] | GI50 [9] | GI50 [10] | GI50 [11] | GI50 [12] | GI50 [13] | GI50 [14] | GI50 [15] | GI50 [16] | GI50 [17] | GI50 [18] | GI50 [19] | GI50 [20]
c1ccc2c(c1)N=c1ccccc1=P21c2ccccc2Nc2ccccc21 | 0.986 µM (active) | 0.581 µM (active) | 0.405 µM (active) | 0.186 µM (active) | 0.242 µM (active) | 0.192 µM (active) | 2.4 µM (inactive) | 0.39 µM (active) | 0.942 µM (active) | 0.366 µM (active) | 0.129 µM (active) | 0.577 µM (active) | 0.156 µM (active) | 0.174 µM (active) | 0.186 µM (active) | 0.352 µM (active) | 0.242 µM (active) | 17.2 µM | 0.614 µM (active) | 1.5 µM (inactive)
O=C1N[C@H]2c3c(Cl)sc(Cl)c3C(=O)[C@H]2O1 | 6.79 µM (inactive) | 20.2 µM (inactive) | 2.84 µM (inactive) | 1.79 µM (inactive) | 10.1 µM (inactive) | 31.6 µM (inactive) | 13.4 µM (inactive) | 14.3 µM (inactive) | 18.8 µM (inactive) | 5.51 µM (inactive) | 14 µM (inactive) | 17.9 µM (inactive) | 19.7 µM (inactive) | 2.58 µM (inactive) | 8.89 µM (inactive) | 3.55 µM (inactive) | 18.2 µM (inactive) | 2.38 µM | 17 µM (inactive) | 8.71 µM (inactive)
C=C1CC2(OC1=O)c1ccccc1CCc1ccccc12 | 1.81 µM (inactive) | 25.8 µM (inactive) | 1.59 µM (inactive) | 0.729 µM (active) | 1.94 µM (inactive) | 2.07 µM (inactive) | 1.71 µM (inactive) | 2.48 µM (inactive) | 16.1 µM (inactive) | 9.12 µM (inactive) | 1.91 µM (inactive) | 13.2 µM (inactive) | 2.07 µM (inactive) | 0.627 µM (active) | 12.5 µM (inactive) | 7.23 µM (inactive) | 14.3 µM (inactive) | 1.91 µM | 1.93 µM (inactive) | 2.52 µM (inactive)
O=C(O)[C@@H]1C[C@@H](O)CN1 | > 100 µM (inactive) | > 100 µM (inactive) | > 100 µM (inactive) | > 100 µM (inactive) | > 100 µM (inactive) | > 100 µM (inactive) | > 100 µM (inactive) | > 100 µM (inactive) | > 100 µM (inactive) | > 100 µM (inactive) | > 100 µM (inactive) | > 100 µM (inactive) | > 100 µM (inactive) | > 100 µM (inactive) | > 100 µM (inactive) | > 100 µM (inactive) | > 100 µM (inactive) | > 100 µM | > 100 µM (inactive) | > 100 µM (inactive)
C[C@]12CC[C@H]3[C@@H](CC=C4C[C@@H](N5CCCC5)CC[C@@]43C)[C@@H]1C[C@H](N1CCCCC1)[C@@H]2O | 45.3 µM (inactive) | > 100 µM (inactive) | > 100 µM (inactive) | 28.2 µM (inactive) | 42.5 µM (inactive) | > 100 µM (inactive) | > 100 µM (inactive) | 45.4 µM (inactive) | > 100 µM (inactive) | > 100 µM (inactive) | 93.3 µM (inactive) | > 100 µM (inactive) | 26.8 µM (inactive) | > 100 µM (inactive) | > 100 µM (inactive) | > 100 µM (inactive) | > 100 µM (inactive) | 33.8 µM | > 100 µM (inactive) | > 100 µM (inactive)
